{
  "source": "patent US12144851B2",
  "about": "“Vaccinal strategy” (INSERM (INSTITUT NATIONAL DE LA SANTÉ ET DE LA RECHERCHE …, priority 2018, dated 2024)",
  "tested_on": "SARC-A2-MELOE-1 cells",
  "experiment": "Anti-tumor vaccination with aSLP",
  "format": "in vivo, A2/DR1 mice",
  "settings": "day 36, threshold 50 mm^2; prime 100 μg day 6 plus adjuvant, boost 14 days later; 0/7 in untreated, p=0.0513",
  "protocol": "The SARC-L1 cell line which spontaneously occurred in A2/DR1 mice was genetically modified to over-express HLA-A*0201 as previously described (Rangan et al Oncotarget, 2017). SARC-A2 cells were then transduced with a gammaretroviral dicistronic vector encoding the whole MELOE-1 antigen and, downstream of an IRES element, a puromycin N-acetyltransferase allowing selection of the transduced cells with puromycin (5 μg/mL). HLA-A*0201 expression was checked by flow cytometry. The capacity of the MELOE-1-transduced SARC-A2 (SARC-A2-MELOE-1) cells to present the A2-restricted MELOE-1 epitope was confirmed by their recognition by an HLA-A*0201-restricted T cell clone (data not shown).\nA2/DR1 mice were subcutaneously injected with 2×10^5 SARC-A2-MELOE-1 cells in 100 μl in the right flank. The first vaccination with aSLP (100 μg in IFA, as above) or adjuvant alone or PBS started when tumor became detectable (around 10 mm2). […] Tumor growth was evaluated twice a week using a caliper and mice were euthanized when their tumor exceeded 300 mm^2. The efficiency of anti-tumor vaccination was evaluated by Fisher's exact test (α=0.5%).\nTo evaluate the anti-tumor potential of vaccination with aSLP, we used the previously described SARC-A2 cell line transduced with a cDNA encoding the whole MELOE-1 antigen. […] Mice were monitored until the end point at day 36. […]",
  "data": [
    {"sequence": "TSREQFLPSEGAACPPWLLSVGGTLNDECWPASL (Synthetic SLP) [SEQ ID NO: 87]", "values": [
      {"measurement": "mice in which tumor growth was inhibited", "value": "4/8"}
    ]}
  ]
}
